Earlier results on three molecules are cited in US7985733B1, “Buffer-based method for preparing bivalirudin drug product” (The Medicines Company, priority 2010, dated 2011).

The conditions of series [1]: 25° C.
The conditions of series [2]: pH at which the molecule carries no net charge.
For series [3] the following is noted: statement of CN 101244043.

As for Maleate, in series [1], the “pKa (pK1)” value is given as 2.0 and the “pKa (pK2)” value is recorded as 6.2. For the molecule `CC[C@H](C)[C@H](NC(=O)[C@H](CCC(=O)O)NC(=O)[C@H](CCC(=O)O)NC(=O)[C@H](Cc1ccccc1)NC(=O)[C@H](CC(=O)O)NC(=O)CNC(=O)[C@H](CC(N)=O)NC(=O)CNC(=O)CNC(=O)CNC(=O)CNC(=O)[C@@H]1CCCN1C(=O)[C@H](CCCNC(=N)N)NC(=O)[C@@H]1CCCN1C(=O)[C@H](N)Cc1ccccc1)C(=O)N1CCC[C@H]1C(=O)N[C@@H](CCC(=O)O)C(=O)N[C@@H](CCC(=O)O)C(=O)N[C@@H](Cc1ccc(O)cc1)C(=O)N[C@@H](CC(C)C)C(=O)O` [bivalirudin, D-Phenylalanyl-L-Prolyl-L-Arginyl-L-Prolyl-Glycyl-Glycyl-Glycyl-Glycyl-L-Asparagyl-Glycyl-L-Aspartyl-L-Phenylalanyl-L-Glutamyl-L-Glutamyl-L-Isoleucyl-L-Prolyl-L-Glutamyl-L-Glutamyl-L-Tyrosyl-L-Leucine], in series [2], the “isoelectric point (pI)” value is “about 3.6”. Besides, in series [3], the solubility in water result is given as “easily soluble in water”. Regarding `O=S(=O)(O)CCN1CCN(CCS(=O)(=O)O)CC1` [Piperazine-1,4-bis(2-ethanesulfonic acid)], the pKa (as a rule, the pH at which an ionisable group is half protonated) in series [1] is given as 6.8.
